# Data taken from PubChem BioAssay AID1845207 (Molecular Pharmacology Branch, DTP, NCI, 2023).
# Test system: NCI-H1876 tumor spheroid viability
# Test: Anticancer human tumor NCI-H1876 cell line growth inhibition;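 further: spheroids exposed to compounds for seven days before the viability read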;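 on viability, T/C: percent of DMSO vehicle control viability so 100% = vehicle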
# Conditions: spheroids with HUVEC and MSC; for IC50: curve of first compound; for viability, T/C: stronger effect = lower value
# In short: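 Single agents and combinations were tested on spheroids built from tumor cells plus HUVEC and hMSC, at half-log dilutions starting at or near clinical Cmax, else 10 microM; final DMSO 0.25% (v/v).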
# [1] = second compound 30 pM, first compound 0.0316 µM
# [2] = second compound 30 pM, first compound 0.1 µM
# [3] = second compound 30 pM, first compound 0.316 µM
# [4] = second compound 30 pM, first compound 1 µM
# [5] = second compound 30 pM, first compound 3.16 µM
# [6] = second compound 30 pM, first compound 10 µM
# [7] = second compound 94.9 pM, first compound 0.0316 µM
# [8] = second compound 94.9 pM, first compound 0.1 µM
# [9] = second compound 94.9 pM, first compound 0.316 µM
# [10] = second compound 94.9 pM, first compound 1 µM
# [11] = second compound 94.9 pM, first compound 3.16 µM
# [12] = second compound 94.9 pM, first compound 10 µM
# [13] = second compound 0.0003 µM, first compound 0.0316 µM
# [14] = second compound 0.0003 µM, first compound 0.1 µM
# [15] = second compound 0.0003 µM, first compound 0.316 µM
# [16] = second compound 0.0003 µM, first compound 1 µM
# [17] = second compound 0.0003 µM, first compound 3.16 µM
# [18] = second compound 0.0003 µM, first compound 10 µM
# [19] = second compound 0.000949 µM, first compound 0.0316 µM
# [20] = second compound 0.000949 µM, first compound 0.1 µM
# [21] = second compound 0.000949 µM, first compound 0.316 µM
# [22] = second compound 0.000949 µM, first compound 1 µM
# [23] = second compound 0.000949 µM, first compound 3.16 µM
# [24] = second compound 0.000949 µM, first compound 10 µM
# [25] = second compound 0.003 µM, first compound 0.0316 µM
# [26] = second compound 0.003 µM, first compound 0.1 µM
# [27] = second compound 0.003 µM, first compound 0.316 µM
# [28] = second compound 0.003 µM, first compound 1 µM
# [29] = second compound 0.003 µM, first compound 3.16 µM
# [30] = second compound 0.003 µM, first compound 10 µM
SMILES,IC50 (second compound 30 pM) [µM],IC50 (second compound 94.9 pM) [µM],IC50 (second compound 0.0003 µM) [µM],IC50 (second compound 0.000949 µM) [µM],IC50 (second compound 0.003 µM) [µM],"viability, T/C [1] [%]","viability, T/C [2] [%]","viability, T/C [3] [%]","viability, T/C [4] [%]","viability, T/C [5] [%]","viability, T/C [6] [%]","viability, T/C [7] [%]","viability, T/C [8] [%]","viability, T/C [9] [%]","viability, T/C [10] [%]","viability, T/C [11] [%]","viability, T/C [12] [%]","viability, T/C [13] [%]","viability, T/C [14] [%]","viability, T/C [15] [%]",other results
CC1COCCN1c1cc(-c2ccnn2C)c2ccnc(-c3ccn[nH]3)c2n1 (stereo not given) + COc1cc2c(cc1O)CCNC21CSC2c3c(OC(C)=O)c(C)c4c(c3C(COC1=O)N1C(O)C3Cc5cc(C)c(OC)c(O)c5C(C21)N3C)OCO4,< 0.0316,< 0.0316,< 0.0316,< 0.0316,< 0.0316,30.7,17.9,11.3,4.58,3.01,2.83,17.4,10.3,6.18,3.39,2.3,2.27,5.4,4.29,2.95,"viability, T/C [16]: 2.33%; viability, T/C [17]: 2.39%; viability, T/C [18]: 2.2%; viability, T/C [19]: 2.56%; viability, T/C [20]: 2.32%; viability, T/C [21]: 1.67%; viability, T/C [22]: 1.48%; viability, T/C [23]: 1.48%; viability, T/C [24]: 2.04%; viability, T/C [25]: 0.92%; viability, T/C [26]: 1.05%; viability, T/C [27]: 0.72%; viability, T/C [28]: 0.9%; viability, T/C [29]: 0.88%; viability, T/C [30]: 0.28%"
COc1cc(C)[nH]c(=O)c1CN1CCc2c(Cl)cc(C(OC)C3COC3)c(Cl)c2C1=O (stereo not given) + COc1cc2c(cc1O)CCNC21CSC2c3c(OC(C)=O)c(C)c4c(c3C(COC1=O)N1C(O)C3Cc5cc(C)c(OC)c(O)c5C(C21)N3C)OCO4,> 10,> 10,< 0.0316,< 0.0316,< 0.0316,99.7,104,96.9,97.6,94.5,90.5,91.6,89.6,89.5,86.9,81.9,76.7,22,21.2,23.9,"viability, T/C [16]: 20.5%; viability, T/C [17]: 19.1%; viability, T/C [18]: 14%; viability, T/C [19]: 2.52%; viability, T/C [20]: 2.44%; viability, T/C [21]: 2.38%; viability, T/C [22]: 2.44%; viability, T/C [23]: 2.06%; viability, T/C [24]: 2.03%; viability, T/C [25]: 0.75%; viability, T/C [26]: 0.84%; viability, T/C [27]: 0.98%; viability, T/C [28]: 0.57%; viability, T/C [29]: 0.7%; viability, T/C [30]: 0.93%"
Cc1cc(C)c(CNC(=O)c2cc(-c3ccc(CN4CCOCC4)cc3)cc3c2cnn3C2CCCC2)c(=O)[nH]1 + COc1cc2c(cc1O)CCNC21CSC2c3c(OC(C)=O)c(C)c4c(c3C(COC1=O)N1C(O)C3Cc5cc(C)c(OC)c(O)c5C(C21)N3C)OCO4,> 10,> 10,< 0.0316,< 0.0316,< 0.0316,103,101,104,104,104,85.3,93.1,94.2,94.1,91.5,93.2,63.8,29.7,33.7,34.9,"viability, T/C [16]: 27.2%; viability, T/C [17]: 28.6%; viability, T/C [18]: 17.4%; viability, T/C [19]: 2.79%; viability, T/C [20]: 5.13%; viability, T/C [21]: 3.54%; viability, T/C [22]: 3.83%; viability, T/C [23]: 3.88%; viability, T/C [24]: 4.21%; viability, T/C [25]: 0.62%; viability, T/C [26]: 0.99%; viability, T/C [27]: 0.83%; viability, T/C [28]: 1.17%; viability, T/C [29]: 0.68%; viability, T/C [30]: 0.88%"
[2H]c1nc(C)nc([2H])c1-c1cc(NC[C@@H](C)c2cccc3c(C(=O)NC)ccnc23)ncn1 + COc1cc2c(cc1O)CCNC21CSC2c3c(OC(C)=O)c(C)c4c(c3C(COC1=O)N1C(O)C3Cc5cc(C)c(OC)c(O)c5C(C21)N3C)OCO4,> 10,> 10,< 0.0316,< 0.0316,< 0.0316,102,101,101,101,100,98,90.8,94.2,94.6,94.5,93.9,85.7,31,32.2,35.5,"viability, T/C [16]: 30%; viability, T/C [17]: 31.6%; viability, T/C [18]: 21.6%; viability, T/C [19]: 3.38%; viability, T/C [20]: 2.4%; viability, T/C [21]: 2.32%; viability, T/C [22]: 2.39%; viability, T/C [23]: 2.46%; viability, T/C [24]: 3.2%; viability, T/C [25]: 0.5%; viability, T/C [26]: 0.64%; viability, T/C [27]: 0.5%; viability, T/C [28]: 0.66%; viability, T/C [29]: 0.74%; viability, T/C [30]: 0.7%"
